Test results from US12337000B2, “Therapeutic modulators of the reverse mode of ATP synthase” (priority 2017, dated 2025).
“Also recorded” adds a separate entry of the source. Read-outs that look alike come from different tables or passages of the source.

How the values were obtained:
[1] = system: HL-1 cardiac muscle cell line; conditions: 3 μM, HL-1 cells, data from [12]; cited from earlier work
[2] = system: 59 cancer cell lines (NCI-60); test: NCI-60 one-dose in vitro assay; type: cell-based, human; conditions: for inhibition at 100 µM / inhibition at 10 µM: Homo sapiens; for inhibition at 10 µM: 48 hours, read-out: mean cancer growth inhibition, across all 59 cancer cell lines; for inhibition at 10 µM / anti-cancer activity (in words): 10 μM
Text: FIGS. 1, 2, 3, 4, 5, 6, 7, 8 show results from the NCI-60 one-dose in vitro assay at the Developmental Therapeutics Program (DTP), at the National Cancer Institute (NCI, Bethesda, MD, USA). Its protocol is well known to those of the art, and it tests the effect, if any, of a test compound on the growth/survivability of a cancer cell line as compared to the no compound control. […] However, a constant is that there is always representative cell lines from leukemia, melanoma and cancers of the lung, colon, brain, ovary, breast, prostate and kidney. In a one-dose NCI compound test report, NCI report a number for each cell line, which they call “Growth Percent”, which is its growth relative to the no-compound control, and relative to the time zero number of cells. This reported parameter allows detection of both growth inhibition (values between 0 and 100) and lethality (values less than 0). For example, an NCI “Growth Percent” value of 100 means no growth inhibition. Value of 40 means 60% growth inhibition. Value of 0 means no net growth over the course of the experiment. Value of −40 means 60% lethality. Value of −100 means all cells are dead. I don't present NCI one-dose data in this original format. Instead, if the NCI “Growth Percent” value for a cell is positive, it is manipulated: [100 minus this original NCI-60 “Growth Percent” data point], to yield the percentage “Growth Inhibition”. If the original NCI “Growth Percent” value for a cell is negative, it is made positive to be the percentage of original cancer cells (at time zero) killed: “Percentage Killed” {and in these cases, of course, all growth has been inhibited, so percentage “Growth Inhibition” is then specified to be 100% for this cancer cell line}. In my one-dose figures, “Growth Inhibition” (0-100%) is presented on the x-axis and, if applicable, “Percentage Killed” (0-100%) further along on the x-axis. The latter is applicable when there is not just cancer growth inhibition but a reduction in the number of cancer cells from the start time i.e. when the compound is not merely slowing cancer growth, but is actively reducing the number of cancer cells from the starting number. In cases where there is only growth inhibition, only “Growth inhibition” is presented on the x-axis.
NCI-60 tests are performed at a controlled temperature of 37° C..
To perform the anti-cancer testing reported: BMS-199264 hydrochloride was purchased from Sigma-Aldrich. BTB06584 was purchased from AdooQ Bioscience, Irvine, CA, USA. Compounds 19a (separated into 6a and 6b stereoisomers) and 31 were synthesized by reaction schemes disclosed herein. Almitrine dimesylate was purchased from Ak Scientific, Palo Alto, CA, USA.

[3] = system: 59 different cancer cell lines (NCI-60); test: NCI-60 five-dose in vitro assay; type: cell-based; conditions: Homo sapiens, read-out: mean GI50 of all 59 cell lines
Text: Results are from the NCI-60 five-dose in vitro assay at the Developmental Therapeutics Program (DTP), at the National Cancer Institute (NCI, Bethesda, MD, USA). […] These graphs are as outputted by the NCI but changed from colour to black and white. On the y-axis of each is the aforementioned “Growth Percent” parameter used by NCI, which is growth relative to the no-compound control, and relative to the time zero number of cells.

F1F0 ATP synthesis = target: T1, F1F0 ATP synthesis (Bos taurus, UniProt P00829+P19483); conditions: SMP assays, [5-8]; cited from earlier work
T1 construct: are from sub-mitochondrial (SMP) studies in [5-8]; from tissue; host or cells: sub-mitochondrial particles (SMPs)

ex vivo rat heart = conditions: 10 μM [11]; cited from earlier work
[4] = Enantiomeric excess (ee) stability experiments; type: physicochemical; conditions: FIG. 16
Text: FIG. 16. The enantiomeric excess (ee) of 6a and 6b is […] in presented ee stability experiments. […] This ee instability in biological media is an unexpected result. This finding is componentry to the invention of this disclosure, as are any modifications to the structure of 6a or 6b to slow their ee erosion due to epimerization/racemization. The ee instability is unexpected because it runs contrary to theory. The 2nd order rate constant (kgb) for general-base catalysed racemization can be predicted for 6a and 6b by theory from (and its supplementary information, all incorporated by reference). Joined to the stereogenic carbon of 6a and 6b there is a phenyl group, alkyl and a guanidine group: ΣΔΔG(R1,R2,R3)=[…]=−36.2 kcal/mol. The value for the guanidine group (19.1) is not from but from one of its authors, Dr. Andrew Leach, by personal communication, who sourced it by quantum mechanical calculation with the Gaussian 03 software package. The cross-conjugation correction was not applied in this case because Dr. Leach wrote “I would not expect guanidine to be a conjugating group”. log(kgb)=−0.11*ΣΔΔG(R1,R2,R3)−9.81, ∴Kgb=0.00000148593 M^−1s^−1. This is not particularly fast. Racemization might occur faster for 6a and 6b in cells than predicted by theory because their high lipophibicity concentrates them in biological membranes. […]

[5] = In vivo mouse study of 6a and 6b, rectal temperature and survival at 22° C. room temperature; set-up: species or system Mus Musculus C57BL/6; conditions: for effect on rectal temperature (in words): in vivo, iv
Description: FIG. 15. In vivo study of compounds 6a and 6b, conducted at 22° C. room temperature. METHODOLOGY: 4 mice were used and in the presented table “Day” refers to the number of days since the 1st drug/vehicle dose on Day 1. Some experimental details: intravenous (IV) administration (tail vein), dosing volume=10 μl/g, solution (not suspension), sterilised (0.22 μm filter) vortexed vehicle=12.5% solutol, 12.5% ethanol, 75% water, IV solutions freshly prepared before injection except on days 22 and 39 when solutions prepared on previous dosing days were used (sub-optimal), Female Mus Musculus C57BL/6 strain, 6-8 weeks old at study start, mice sourced from Shanghai Lingchang Bio-Technology Co. Ltd, mice were observed/quarantined for a few days after arrival and before dosing, ad libitum Co^60 irradiation sterilized dry granule food & reverse osmosis autoclaved water, corn cob bedding, polysulfone individually ventilated cage (IVC, containing up to 5 animals): 325 mm×210 mm×180 mm, 12 hour light/dark cycle, 40-70% humidity, 20-26° C. room temperature, StudyDirector™ software (Studylog Systems, Inc. CA, USA) used to allocate/randomize control/treatment groups, animals marked by ear coding (notch), care and use of animals in accordance with the regulations of the Association for Assessment and Accreditation of Laboratory Animal Care (AAALAC), when recording rectal temperature: care was taken to ensure constant depth of probe insertion across different recordings, time was afforded for rectal probe temperature to equilibrate with rectal temperature, and time was afforded between recordings for probe temperature to reset.

F1F0 ATP hydrolase = target: T2, F1F0 ATP hydrolase (Bos taurus, UniProt P00829+P19483); conditions: cited from earlier work; for IC50: [5-6], read-out: IC50 reverse mode of ATP synthase
T2 construct: from tissue; host or cells: sub-mitochondrial particles (SMPs)

[6] = Human pharmacokinetics of oral almitrine dimesylate; type: in vivo; conditions: human, plasma; single 200 mg oral dose, humans [121]; read-out: mean cmax plasma concentration
[7] = mice, intraperitoneal injection (IP); cited from earlier work
[8] = cited from earlier work
[9] = target: reverse mode of ATP synthase (Homo sapiens, UniProt P06576+P25705+P48047); conditions: [P4]; cited from earlier work
[10] = target: forward mode of ATP synthase (Homo sapiens, UniProt P06576+P25705+P48047); conditions: [P4]; cited from earlier work
[11] = system: 59 different cancer cell lines (NCI-60); conditions: NCI-60 five-dose, from Table 1 of [30]; cited from earlier work
[12] = 1.9 g/kg intraperitoneal, 24.5 to 25° C. ambient temperature [100]; cited from earlier work
[13] = system: 59 cancer cell lines (NCI-60); conditions: 10 μM, NCI-60 one-dose, NSC: 760347 in [16], cited from earlier work
[14] = read-out: median cancer growth inhibition

CC[C@H]1/C=C/C=C/C[C@@H](C)[C@H](O)[C@@](C)(O)C(=O)[C@@H](C)[C@H](O)[C@@H](C)C(=O)[C@@H](C)[C@H](O)[C@@H](C)/C=C/C(=O)O[C@@H]2[C@H](C)[C@H](CC1)O[C@@]1(O[C@@H](C[C@@H](C)O)[C@@H](C)CC1=O)[C@H]2C [Oligomycin B]
change of O2 consumption [1]: −40%

CC1(C)Oc2ccc(S(=O)(=O)N3CCCCC3)cc2[C@@H](N(Cc2ncc[nH]2)c2ccc(Cl)cc2)[C@@H]1O [BMS-199264]
inhibition at 100 µM ([2]; read-out: Mean % cancer growth inhibition): > 100%
GI50 [3]: 3.9 µM
EC50 (F1F0 ATP synthesis): 18 µM
harm to normal cells (ex vivo rat heart) (ex vivo rat heart): doesn't harm; also recorded: does not harm

N#Cc1cccc(C(=O)/N=C(\Nc2ccc(Cl)cc2)N[C@H](Cn2ccnc2)c2ccc(Cl)cc2Cl)c1 [Compound 6b]
enantiomeric excess (ee) stability [4]: stable
time to death after IV injection ([5]; 20 mg/kg IV): ~210 min
survival time after IV injection ([5]; 40 mg/kg IV, found dead the next day): > 6 h
effect on rectal temperature (in words) ([5]; mouse): potently reduces rectal temperature
inhibition at 10 µM [2]: 66%
inhibition at 100 µM [2, 14]: > 79%
GI50 [3]: 0.446 µM
IC50 (F1F0 ATP hydrolase): 0.018 µM

C=CCNc1nc(NCC=C)nc(N2CCN(C(c3ccc(F)cc3)c3ccc(F)cc3)CC2)n1.CS(=O)(=O)O [almitrine dimesylate, 6-[4-[bis(4-fluorophenyl)methyl]piperazin-1-yl]-2-N,4-N-bis(prop-2-enyl)-1,3,5-triazine-2,4-diamine methanesulfonic acid]
Cmax [6]: 600 nM
anti-cancer activity (in words) [2]: Anti-cancer activity
anti-cancer activity (in words) ([2]; listed as almitrine dismesylate): greater anti-cancer activity than carboplatin
LD50 [7]: 370 mg/kg
plasma [almitrine] ([8]; 24 hours after 200 mg oral dose [121]): ~50 ng/mL
oral bioavailability ([8]; humans [121]): 70%
mean cmax plasma concentration ([8]; single 150 mg oral dose, humans [123]): 379 ng/mL
mean cmax plasma concentration ([8]; single 200 mg oral dose, humans [121]): 286 ng/mL

CN1C(=O)C(Cc2ccc3ccccc3c2)N=C(c2ccc(O)cc2)c2cc(Cl)ccc21 (centres unmarked) [Bz-423]
EC50 [9]: 8.9 µM
EC50 [10]: 5.5 µM

N.N.[Cl][Pt][Cl] [cisplatin]
GI50 [11]: 1.4 µM

CCO [ethanol]
reduction of body temperature [12]: 1.6 °C

CCN1CC(CCN2CCOCC2)C(c2ccccc2)(c2ccccc2)C1=O (centres unmarked) [Doxapram]
median % cancer growth inhibition [13]: −2.3%
mean % cancer growth inhibition ([13]; negative = growth promotion): −3.7%

N#Cc1cccc(C(=O)/N=C(\Nc2ccc(Cl)cc2)N[C@@H](Cn2ccnc2)c2ccc(Cl)cc2Cl)c1 [Compound 6a]
enantiomeric excess (ee) stability [4]: stable
LD50 ([5]; female, C57BL/6, in vivo, mouse, IV): > 40 mg/kg
effect on rectal temperature (in words) ([5]; mouse): does not
inhibition at 10 µM [2]: 57%
inhibition at 100 µM [2, 14]: > 79%
GI50 [3]: 0.666 µM
EC50 (F1F0 ATP hydrolase; SMP studies in [5-8], read-out: EC50 F1F0 ATP hydrolysis / hydrolase): > 100 µM
IC50 (F1F0 ATP hydrolase): > 100 µM
